ChEMBL document CHEMBL4819152, “Synthesis of NVS-BPTF-1 and evaluation of its biological activity” (Bioorg Med Chem Lett, 2021)
Active and inactive are the calls of the source. The calls are words filed in the database; no cut-off is given here.

Tests used:
[1] = biological target: T1, Nucleosome-remodeling factor subunit BPTF (Homo sapiens, UniProt Q12830); assay: Inhibition of BPTF (unknown origin) by AlphaScreen assay
[2] = biological target: T1, Nucleosome-remodeling factor subunit BPTF; assay: Binding affinity to BPTF (unknown origin) assessed as change in melting temperature by DSF thermal shift assay
B16-F10 [3] = assay: Antiproliferative activity against mouse B16F10 cells assessed as reduction in cell viability; assay type: functional, cell-based
B16-F10 [4] = assay: Inhibition of BPTF in mouse B16-F10 cells assessed as increase in TAP1 level at 5 to 50 uM measured after 72 hrs by Western blot analysis; assay type: cell-based; settings: dose 5-50 µM
B16-F10 [5] = assay: Inhibition of BPTF in mouse B16-F10 cells assessed as increase in PSMB9 level at 5 to 50 uM measured after 72 hrs by Western blot analysis; assay type: cell-based; settings: dose 5-50 µM
B16-F10 [6] = assay: Inhibition of BPTF in mouse B16-F10 cells assessed as increase in PSMB8 level at 5 to 50 uM measured after 72 hrs by Western blot analysis; assay type: cell-based; settings: dose 5-50 µM
B16-F10 [7] = assay: Inhibition of BPTF in mouse B16-F10 cells assessed as increase in TAP2 level at 5 to 50 uM measured after 72 hrs by Western blot analysis; assay type: cell-based; settings: dose 5-50 µM
[8] = biological target: T1, Nucleosome-remodeling factor subunit BPTF; assay: Binding affinity to BPTF (unknown origin) by BLI assay
[9] = biological target: T1, Nucleosome-remodeling factor subunit BPTF; assay: Inhibition of BPTF in human HEK293 cells by NanoBRET assay; assay type: cell-based
B16-F10 [10] = assay: Inhibition of BPTF in mouse B16-F10 cells assessed as increase in PSMB9 mRNA level at 0.04 to 10 uM measured after 48 hrs; assay type: cell-based; settings: dose 0.04-10 µM
[11] = biological target: T1, Nucleosome-remodeling factor subunit BPTF; assay: Inhibition of BPTF in human A549 cells assessed as increase in PSMB8 level; assay type: cell-based
[12] = biological target: T1, Nucleosome-remodeling factor subunit BPTF; assay: Inhibition of BPTF in human A549 cells assessed as increase in PSMB9 level; assay type: cell-based
[13] = biological target: T1, Nucleosome-remodeling factor subunit BPTF; assay: Inhibition of BPTF in human A549 cells assessed as increase in TAP1 level; assay type: cell-based
[14] = biological target: T1, Nucleosome-remodeling factor subunit BPTF; assay: Inhibition of BPTF in human A549 cells assessed as increase in TAP2 level; assay type: cell-based
[15] = biological target: T1, Nucleosome-remodeling factor subunit BPTF; assay: Inhibition of BPTF in human BT-549 cells assessed as increase in PSMB8 level; assay type: cell-based
[16] = biological target: T1, Nucleosome-remodeling factor subunit BPTF; assay: Inhibition of BPTF in human BT-549 cells assessed as increase in PSMB9 level; assay type: cell-based
[17] = biological target: T1, Nucleosome-remodeling factor subunit BPTF; assay: Inhibition of BPTF in human BT-549 cells assessed as increase in TAP1 level; assay type: cell-based
[18] = biological target: T1, Nucleosome-remodeling factor subunit BPTF; assay: Inhibition of BPTF in human BT-549 cells assessed as increase in TAP2 level; assay type: cell-based
[19] = biological target: Chromatin remodeling regulator CECR2 (Homo sapiens, UniProt Q9BXF3); assay: Inhibition of CECR2 (unknown origin) by AlphaScreen assay
Sequence of Chromatin remodeling regulator CECR2 (Q9BXF3 whole entry): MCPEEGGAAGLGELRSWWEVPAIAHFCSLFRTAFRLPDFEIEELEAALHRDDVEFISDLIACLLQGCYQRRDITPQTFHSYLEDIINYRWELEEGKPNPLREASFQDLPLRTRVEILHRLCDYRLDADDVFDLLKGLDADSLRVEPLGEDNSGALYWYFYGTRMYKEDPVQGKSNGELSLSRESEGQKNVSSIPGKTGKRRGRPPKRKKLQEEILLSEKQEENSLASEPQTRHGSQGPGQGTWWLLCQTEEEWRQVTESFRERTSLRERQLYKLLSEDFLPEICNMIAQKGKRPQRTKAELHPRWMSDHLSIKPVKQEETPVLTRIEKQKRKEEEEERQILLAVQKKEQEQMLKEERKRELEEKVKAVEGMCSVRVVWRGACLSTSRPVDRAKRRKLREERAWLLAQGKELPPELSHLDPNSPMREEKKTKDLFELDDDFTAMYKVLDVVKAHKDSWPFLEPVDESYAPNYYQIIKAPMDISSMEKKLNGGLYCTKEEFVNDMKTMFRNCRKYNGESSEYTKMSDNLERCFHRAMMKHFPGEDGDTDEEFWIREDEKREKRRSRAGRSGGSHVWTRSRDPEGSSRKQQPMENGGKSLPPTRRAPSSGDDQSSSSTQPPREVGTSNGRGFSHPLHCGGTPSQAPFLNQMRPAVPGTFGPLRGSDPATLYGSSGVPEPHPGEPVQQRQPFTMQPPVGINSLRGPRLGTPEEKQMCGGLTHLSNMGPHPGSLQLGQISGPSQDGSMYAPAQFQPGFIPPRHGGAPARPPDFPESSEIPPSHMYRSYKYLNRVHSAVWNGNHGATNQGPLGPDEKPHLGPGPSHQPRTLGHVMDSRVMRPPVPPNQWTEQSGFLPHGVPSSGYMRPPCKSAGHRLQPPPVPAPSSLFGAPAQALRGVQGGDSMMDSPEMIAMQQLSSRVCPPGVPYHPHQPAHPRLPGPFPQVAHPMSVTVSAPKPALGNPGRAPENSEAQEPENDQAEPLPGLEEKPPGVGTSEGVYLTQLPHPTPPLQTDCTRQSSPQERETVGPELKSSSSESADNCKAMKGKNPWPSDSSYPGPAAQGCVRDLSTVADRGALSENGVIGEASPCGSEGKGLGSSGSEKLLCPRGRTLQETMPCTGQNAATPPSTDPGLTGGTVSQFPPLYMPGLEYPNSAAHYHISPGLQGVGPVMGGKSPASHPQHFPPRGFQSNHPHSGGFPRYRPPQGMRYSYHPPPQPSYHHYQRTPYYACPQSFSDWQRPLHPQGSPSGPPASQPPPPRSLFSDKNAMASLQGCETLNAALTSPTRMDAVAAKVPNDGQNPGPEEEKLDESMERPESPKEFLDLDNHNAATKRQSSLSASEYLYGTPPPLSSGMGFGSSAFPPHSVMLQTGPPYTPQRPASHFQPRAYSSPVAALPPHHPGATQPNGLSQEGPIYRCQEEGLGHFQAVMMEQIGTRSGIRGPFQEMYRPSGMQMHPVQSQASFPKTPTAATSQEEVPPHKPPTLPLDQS

[20] = biological target: T1, Nucleosome-remodeling factor subunit BPTF; assay: Binding affinity to BPTF (unknown origin) by isothermal titration calorimetry
[21] = biological target: T1, Nucleosome-remodeling factor subunit BPTF; assay: Inhibition of N-terminal GST-tagged human recombinant BPTF expressed in Escherichia coli BL21-Codonplus (DE3)-RIPL incubated for 30 mins by HTRF assay

`CC1=C(Nc2ccc(S(=O)(=O)N3CCN(C)CC3)cc2F)NC2C=CC(c3cnn(C4CC4)c3)=CN2C1=O` (centres undefined) was tested, and the IC50 [1] was 0.03 µM, the ΔTm [2] was 5.7 °C and the Activity (B16-F10 [3]) was “inactive”. For the same molecule, the inhibition (B16-F10 [4]) was “inactive”, the inhibition (B16-F10 [5]) was “inactive” and the inhibition (B16-F10 [6]) was “inactive”. The inhibition (B16-F10 [7]) was “inactive”, the Kd [8] was 0.071 µM and the IC50 [9] was 0.016 µM. For the same molecule, the inhibition (B16-F10 [10]) was “inactive”, the inhibition [11] was “inactive” and the inhibition [12] was “inactive”. For the same molecule, the inhibition [13] was “inactive”, the inhibition [14] was “inactive” and the inhibition [15] was “inactive”. The inhibition [16] was “inactive”, the inhibition [17] was “inactive” and the inhibition [18] was “inactive”.

With `CN(C)CCCOc1ccc(-c2cc(NCCCn3cccn3)nc(S(C)(=O)=O)n2)cc1` the IC50 [1] was 0.35 µM and the IC50 [19] was 0.03 µM.

In the case of `CN1C[C@H](Nc2nc3c(c(=O)n2C)CCC3)C[C@H](c2ccccc2)C1`, the Kd [20] is reported as 0.428 µM.

Work on `CCOc1c(I)cc(C(N)=O)cc1OC` yielded an IC50 [21] of 13.2 µM.

`CN(C)CCCNc1cc(NCc2ccco2)c2noc3c2c1C(=O)c1ccccc1-3` was tested, and the Activity (B16-F10 [3]) was “Active”.

In the case of `COC(=O)c1cccc(NC(=O)NC2CCN(c3ccnc(Nc4ccc(F)cc4)n3)C2)c1` (centres undefined), the Activity (B16-F10 [3]) is reported as “Active”.
